“Also recorded” adds a separate entry of the source.
Key:
T cell clone BDC-10.1 [1] = assay: IFNγ production by T cell clone in antigen assay (ELISA); type: cell-based, NOD mouse; settings: peptide or preparation as antigen
Source text: (§1) The T cell clones are maintained in culture by periodic re-stimulation with irradiated NOD splenocytes and islet cells or β-membrane. To assay for antigen, resting responder T cells (i.e., for example, the cells at the end of the two-week restimulation period) are co-cultured for 24 hr with elicited peritoneal macrophages (PEC) as APC and either a test sample or control antigen. Control antigen will be in the form of islet cells or the whole-cell membrane fraction (i.e., for example, a β-membrane fraction). As described above, unlysed β-membrane is stored in aliquots at −80° C. for this purpose. Negative controls include responder cells alone and responders plus APC.
(§2) At the end of the culture period, supernatants are collected from the cultures and IFNγ production is measured by ELISA. Wells positive for IFNγ are indicative of T cells responding to antigen; the amount of cytokine produced is calculated from a standard curve and is directly proportional to the amount of antigen present.
(§3) Antigenicity of islet cells, cellular and biochemical fractions, peptides, or insect cells expressing IA^g7-peptide constructs, was assessed through responses of T cell clones or hybridomas made by fusing T cell clones to the TCR^− version of T cell lymphoma, BW5147. White et al., “Two better cell lines for making hybridomas expressing specific T cell receptors” J Immunol 143:1822-1825 (1989). T cell clone cultures typically contained 2×10^4 responder T cells, 2.5×10^4 NOD peritoneal exudate cells (PEC) as APC, and antigen (SEC/IEX fractions, peptides, islet cells); all assays were performed with β-Mem as a positive control. IFNγ was measured by ELISA of culture supernatants. For cultures with T cell hybridomas, antigen/MHC activation was assessed by IL-2 production measured by a bioassay using the HT-2 T cell line. Walker et al., “Antigenspecific. I region-restricted interactions in vitro between tumor cell lines and T cell hybridomas” J Immunol 128:2164-2169 (1982). Synthetic peptides were either produced in the Molecular Resource Center at National Jewish Health or obtained from CHI Scientific, Maynard, Mass.

T cell clone BDC-2.5 [2] = assay: as above; type: cell-based, NOD mouse; settings: peptide or preparation as antigen
Source text: as §1, §2, §3

T cell clone BDC-5.10.3 = assay: as above; type: cell-based, NOD mouse; settings: peptide or preparation as antigen
Source text: as §1, §2, §3

soluble IA^g7 = assay: Peptide binding to IA^g7: competition with biotinylated HEL peptide; parameters: species or system NOD mouse; settings: competition with biotinylated pHEL 11 μM, pH 5.6, overnight
Source text: FIG. 15B: A series of ChgA peptides tested for their ability to compete with a biotinylated HEL peptide for binding to soluble IA^g7. pS3-positive control peptide. IE^k moth cytochrome c-negative control peptide. N=2. Y axis: Percent of IA^g7-bound biotinylated HEL peptide as compared to IE^k. X axis: Log concentration of inhibitor peptide.
In order to confirm the unique binding register of the WE14 peptide, a series of peptides comprising N-terminal extensions and/or C-terminal deletions of WE14 were evaluated for their ability to stimulate the BDC-2.5 T cell clone (FIG. 6a) or to bind to IA^g7. See, FIG. 15A. […] See, FIG. 15B. Further, a pS3 mimotope was used as the positive control peptide and an irrelevant peptide from moth cytochrome c, pMCC, was the negative control peptide. The data were analyzed to determine the stimulatory or binding capacity of the peptides relative to WE14. See, FIG. 15C.
Soluble IA^g7 with covalently attached pHEL was treated with thrombin to cleave the linker attaching the peptide to the IA^g7 β chain. Kozono et al., “Production of soluble MHC class II proteins with covalently bound single peptides” Nature 369:151-154 (1994). Samples (0.5 μg) were incubated with a soluble biotinylated version of pHEL, Biotin-GGGMKRHGLDNYRGYSL (SEQ ID NO: 56) (11 μM), either alone or in the presence of various concentrations of potential competitors peptides, in 15 μL of pH 5.6 buffer overnight at room temperature. The sample was diluted to 100 μL of PBS in a well of a 96-well ELISA plate coated with an anti-IA^g7 monoclonal antibody, OX-6 (BD Pharmaceuticals). The captured IA^g7 was washed several times with PBS and the bound bio-pHEL detected with alkaline phosphatase coupled Extravadin (Sigma) and […].

T cell clone BDC-10.1 [3] = settings: Yoshida et al 2002; cited from earlier work
T cell clone BDC-2.5 [4] = settings: Yoshida et al 2002; cited from earlier work
T cell clone PD-12.4.4 = assay: IFNγ production by insulin-reactive control T cell clone (ELISA); type: cell-based, NOD mouse; settings: negative control clone
Source text: as §1, §2
Antigenicity of islet cells, cellular and biochemical fractions, peptides, or insect cells expressing IA^g7-peptide constructs, was assessed through responses of T cell clones or hybridomas made by fusing T cell clones to the TCR^− version of T cell lymphoma, BW5147. […] IFNγ was measured by ELISA of culture supernatants. […]

[5] = tested on: BDC-10.1 T cell hybridoma; assay: IL-2 production by T cell hybridoma stimulated with ICAM/B7 insect cells displaying IA^g7-peptide; type: cell-based, mouse; settings: covalent IA^g7-peptide complex on B7/ICAM insect cells; 24 hrs
Description: (§4) FIG. 13C: Three BDC T cell hybridomas stimulated in culture either with: i) immobilized H597 anti-TCR Cβ Mab; ii) ICAM/B7 expressing SF9 cells infected with virus encoding IA^g7 with a HEL peptide; or ii) ICAM/B7 expressing SF9 cells infected with virus encoding IA^g7 with pS3. IL-2 production was assayed after 24 hrs.
(§5) T cell hybridomas bearing TCR from either the BCD-2.5, BDC-10.1 or BDC-5.10.3 T cell clones were tested for their ability to recognize the covalent IA^g7-p53 complex using B7/ICAM-expressing insect cells as artificial APCs. See, FIG. 13C; Crawford et al., “Mimotopes for alloreactive and conventional T cells in a peptide-MHC display library” PloS Biol 2:E90 (2004); and Crawford et al., “Use of baculovirus MHC/peptide display libraries to characterize T-cell receptor ligands” Immunol Rev 210: 156-170 (2006).
as §3

BDC-2.5 T cell hybridoma = assay: as above; type: cell-based, mouse; settings: covalent IA^g7-peptide complex on B7/ICAM insect cells; 24 hrs
Description: as §4, §5, §3

[6] = tested on: BDC-5.10.3 T cell hybridoma; assay: as above; type: cell-based, mouse; settings: covalent IA^g7-peptide complex on B7/ICAM insect cells; 24 hrs
Description: as §4, §5, §3

BDC-2.5 TCR = assay: Binding of fluorescent multimeric soluble BDC-2.5 TCR to IA^g7-peptide on insect cells (flow cytometry); parameters: species or system mouse; settings: oligomerized
Source text: FIG. 13B: Use of a fluorescent, oligomerized, soluble BDC-2.5 TCR to enrich from the library a virus encoding an IA^g7-mimotope (i.e., for example, pS3) that forms a strong ligand with a BDC-2.5 TCR.
The amino acids at p1, p2, p3, p5, p7 and p8 were fully randomized to all 20 amino acids. See, FIG. 13A. Insect cells were infected with the library at a multiplicity of infection of <1 such that most infected cells expressed a single member of the library. The few infected cells expressing an IA^g7-peptide combination capable of binding a fluorescent, soluble, multimeric version of BDC-2.5 TCR were isolated using flow cytometry. See, FIG. 13B, panel 1). These cells were used to create a new enriched viral stock. […]
The PCR DNA fragment encoding the library was cloned directly into baculovirus DNA already encoding the IA^g7 genes, attached via a linker to the N-terminus of the β chain. […] Insect cells infected with the library at a multiplicity of infection of <1 were analyzed by flow cytometry for cells that expressed IA^g7 (OX-6 Mab, BD-Pharmingen) and also bound a multivalent TCR reagent consisting of the soluble BDC-2.5 TCR captured by a biotinylated anti-Cα Mab, ADO-304, bound to Alexafluor-647 labeled streptavidin (Molecular Probes). […] The peptide sequence encoded in the positive clones was determined.

[7] = target: WE14 peptide (…), natural cleavage product of chromogranin A (mouse); assay: cell-based or functional assay

## EDKRWSRMD [ChgA aa354-362; ED9 = WD5 extended with EDKR]
T cell clone BDC-10.1 [1]
  Stimulation of T cell clone BDC-10.1 (IFNγ response), result in words: did not stimulate
T cell clone BDC-2.5 [2]
  Stimulation of T cell clone BDC-2.5 (IFNγ response), result in words: did not stimulate
T cell clone BDC-2.5 [2]; listed as ED9
  Stimulation of T cell clone BDC-2.5 (IFNγ response), result in words: failed to stimulate
T cell clone BDC-5.10.3
  Stimulation of T cell clone BDC-5.10.3 (IFNγ response), result in words: did not stimulate
Soluble IA^g7
  IA^g7 binding, result in words: did not bind

## HIPIWARMD [peptide mimotope of Yoshida et al 2002]
T cell clone BDC-10.1 [3]
  Mimotope activation of BDC-10.1: activate

## HRPIWARMD [peptide mimotope of Yoshida et al 2002]
T cell clone BDC-2.5 [4]
  Mimotope activation of BDC-2.5: highly stimulatory; also recorded: activate

## RLGLWVRME [mimotope from baculovirus IA^g7-peptide library]
T cell clone BDC-10.1 [1]
  Stimulation of T cell clone BDC-10.1 (IFNγ response), result in words: strongly stimulated
T cell clone BDC-10.1 [1]; listed as pS3
  Stimulation of T cell clone BDC-10.1 (IFNγ response), result in words: maximally
T cell clone BDC-2.5 [2]
  Stimulation of T cell clone BDC-2.5 (IFNγ response), result in words: strongly stimulated
T cell clone BDC-2.5 [2]; listed as pS3
  Stimulation of T cell clone BDC-2.5 (IFNγ response), result in words: maximally
T cell clone BDC-5.10.3
  Stimulation of T cell clone BDC-5.10.3 (IFNγ response), result in words: strongly stimulated
T cell clone BDC-5.10.3; listed as pS3
  Stimulation of T cell clone BDC-5.10.3 (IFNγ response), result in words: maximally
T cell clone PD-12.4.4
  Response of insulin-reactive T cell clone PD-12.4.4 (IFNγ), result in words: not
[5]
  Activation of BDC-10.1 hybridoma (IL-2 production): maximally activated
BDC-2.5 T cell hybridoma
  Activation of BDC-2.5 hybridoma (IL-2 production): maximally activated
[6]
  Activation of BDC-5.10.3 hybridoma (IL-2 production): maximally activated
Soluble IA^g7
  IA^g7 binding, result in words: higher affinity
BDC-2.5 TCR
  Binding of IA^g7-mimotope to BDC-2.5 TCR: strong ligand

## SHLVEALYLVCGERG [insulin peptide, reference compound]
T cell clone PD-12.4.4
  Response of insulin-reactive T cell clone PD-12.4.4 (IFNγ), result in words: responded

## TCR of the T cell clone BDC-2.5 (on the T cell clone or on a hybridoma bearing this TCR)
[7]
  percentage of maximal IFN-γ response at 100 mg/ml β-membrane (% of maximal IFN-γ response): 15
  potency in activating the BDC clones, relative to the pS3 mimotope (fold less potent than pS3): 1000

## TCR of the T cell clone BDC-10.1 (on the T cell clone or on a hybridoma bearing this TCR)
[7]
  potency in activating the BDC clones, relative to the pS3 mimotope (fold less potent than pS3): 1000

— patent US20120128646A1, “METHODS AND COMPOSITIONS FOR THE TREATMENT OF AUTOIMMUNE DISEASE” (priority 2009, published 2012)
